# Values of other authors as cited in patent publication US9809589B2, “Crystal form of compound used as mineralocorticoid receptor antagonist and preparation method therefor” (KBP BIOSCIENCES CO., LTD., priority 2012, dated 2017).
# How the values were obtained:
# [1] = biological target: T1, mineralocorticoid receptor (Homo sapiens, UniProt P08235); details: as disclosed in WO2012022121; cited from earlier work
# T1 sequence (P08235 1-984): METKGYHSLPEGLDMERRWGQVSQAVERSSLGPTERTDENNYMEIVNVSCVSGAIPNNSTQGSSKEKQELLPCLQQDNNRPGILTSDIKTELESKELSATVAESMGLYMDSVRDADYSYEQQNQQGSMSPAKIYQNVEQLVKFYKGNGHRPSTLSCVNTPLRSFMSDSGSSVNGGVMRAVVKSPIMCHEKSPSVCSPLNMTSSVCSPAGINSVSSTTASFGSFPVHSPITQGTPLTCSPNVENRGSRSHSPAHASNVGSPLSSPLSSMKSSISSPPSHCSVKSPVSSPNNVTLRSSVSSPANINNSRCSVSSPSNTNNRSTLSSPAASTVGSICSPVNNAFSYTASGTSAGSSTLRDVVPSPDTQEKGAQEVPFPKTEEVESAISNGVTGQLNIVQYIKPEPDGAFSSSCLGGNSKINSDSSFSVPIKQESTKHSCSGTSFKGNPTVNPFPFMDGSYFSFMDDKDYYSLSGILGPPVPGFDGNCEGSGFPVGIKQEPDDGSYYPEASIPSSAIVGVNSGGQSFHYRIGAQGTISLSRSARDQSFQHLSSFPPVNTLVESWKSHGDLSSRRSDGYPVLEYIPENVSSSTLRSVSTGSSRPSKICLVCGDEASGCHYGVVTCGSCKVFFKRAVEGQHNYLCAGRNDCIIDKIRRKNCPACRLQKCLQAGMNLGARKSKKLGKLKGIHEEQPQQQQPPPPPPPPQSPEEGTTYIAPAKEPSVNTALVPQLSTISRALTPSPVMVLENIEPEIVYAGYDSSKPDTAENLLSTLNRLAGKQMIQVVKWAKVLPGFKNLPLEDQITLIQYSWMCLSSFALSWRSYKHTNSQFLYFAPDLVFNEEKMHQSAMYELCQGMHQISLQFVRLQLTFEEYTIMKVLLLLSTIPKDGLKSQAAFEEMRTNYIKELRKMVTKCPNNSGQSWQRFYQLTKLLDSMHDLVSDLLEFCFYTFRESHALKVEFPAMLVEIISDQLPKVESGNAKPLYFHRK
# glucocorticoid receptor = biological target: T2, glucocorticoid receptor (Homo sapiens, UniProt P04150); details: relative to mineralocorticoid receptor; WO2012022121; cited from earlier work
# T2 sequence (P04150 1-777): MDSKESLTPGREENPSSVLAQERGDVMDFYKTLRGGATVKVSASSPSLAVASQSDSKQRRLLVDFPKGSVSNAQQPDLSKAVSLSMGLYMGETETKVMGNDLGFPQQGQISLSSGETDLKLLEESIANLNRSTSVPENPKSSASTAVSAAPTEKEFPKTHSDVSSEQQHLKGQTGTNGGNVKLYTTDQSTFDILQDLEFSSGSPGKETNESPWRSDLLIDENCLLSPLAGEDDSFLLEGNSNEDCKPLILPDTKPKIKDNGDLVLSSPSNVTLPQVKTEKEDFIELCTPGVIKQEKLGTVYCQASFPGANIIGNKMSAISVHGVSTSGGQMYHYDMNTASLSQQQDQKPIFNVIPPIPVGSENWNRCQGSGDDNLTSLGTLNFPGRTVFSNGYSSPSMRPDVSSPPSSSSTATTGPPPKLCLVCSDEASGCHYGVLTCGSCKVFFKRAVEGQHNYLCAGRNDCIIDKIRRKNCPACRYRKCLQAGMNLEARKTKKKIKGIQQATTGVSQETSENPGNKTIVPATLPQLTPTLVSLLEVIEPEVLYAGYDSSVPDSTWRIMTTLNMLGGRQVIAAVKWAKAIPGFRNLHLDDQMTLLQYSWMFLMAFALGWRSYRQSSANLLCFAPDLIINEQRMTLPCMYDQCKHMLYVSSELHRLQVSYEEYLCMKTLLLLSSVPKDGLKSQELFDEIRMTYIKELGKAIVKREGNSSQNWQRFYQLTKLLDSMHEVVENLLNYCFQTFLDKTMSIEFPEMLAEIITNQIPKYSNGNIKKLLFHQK
# androgen receptor = biological target: T3, androgen receptor (Homo sapiens, UniProt P10275); details: relative to mineralocorticoid receptor; WO2012022121; cited from earlier work
# T3 sequence (P10275 1-920): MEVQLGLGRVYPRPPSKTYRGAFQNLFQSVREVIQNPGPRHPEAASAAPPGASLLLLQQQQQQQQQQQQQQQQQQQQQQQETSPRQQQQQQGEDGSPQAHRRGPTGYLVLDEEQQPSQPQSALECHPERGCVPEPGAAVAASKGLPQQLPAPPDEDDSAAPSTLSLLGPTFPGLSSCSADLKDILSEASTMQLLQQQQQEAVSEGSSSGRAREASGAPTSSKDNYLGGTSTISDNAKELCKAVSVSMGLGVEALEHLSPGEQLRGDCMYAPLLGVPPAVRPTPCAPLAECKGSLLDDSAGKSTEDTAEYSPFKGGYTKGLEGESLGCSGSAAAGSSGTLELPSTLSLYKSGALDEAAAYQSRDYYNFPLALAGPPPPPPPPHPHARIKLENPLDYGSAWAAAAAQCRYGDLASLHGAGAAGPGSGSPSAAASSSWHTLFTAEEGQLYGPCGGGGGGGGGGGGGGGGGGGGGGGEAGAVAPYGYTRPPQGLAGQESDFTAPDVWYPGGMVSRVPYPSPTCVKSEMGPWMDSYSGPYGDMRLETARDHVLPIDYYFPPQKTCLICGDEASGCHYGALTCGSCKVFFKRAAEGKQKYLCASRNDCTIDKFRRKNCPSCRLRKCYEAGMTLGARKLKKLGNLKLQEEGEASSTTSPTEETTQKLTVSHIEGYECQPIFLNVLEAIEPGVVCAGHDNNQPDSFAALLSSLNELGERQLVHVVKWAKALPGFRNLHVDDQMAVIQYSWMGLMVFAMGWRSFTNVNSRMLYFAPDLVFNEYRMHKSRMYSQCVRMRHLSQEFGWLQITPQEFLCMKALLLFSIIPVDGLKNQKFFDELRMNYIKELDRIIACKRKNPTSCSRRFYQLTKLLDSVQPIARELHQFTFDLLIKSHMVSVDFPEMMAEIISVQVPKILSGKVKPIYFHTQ
structure (smiles),measurement,setting,value
"N#Cc1ccc(N2N=C3c4ccc(C(=O)N5CCC(O)CC5)nc4CC[C@@H]3[C@@H]2C2CCCC2)cc1Cl [compound represented by Formula (1), 2-chloro-4-[(3S,3aR)-3-cyclopentyl-7-(4-hydroxypiperidin-1-carbonyl)-3,3a,4,5-tetrahydro-2H-pyrazolo[3,4-f]quinolin-2-yl]benzonitrile]",Binding to the mineralocorticoid receptor,[1],selectively bind to the mineralocorticoid receptor
same,Affinity to the glucocorticoid receptor,glucocorticoid receptor,lower affinity
same,Affinity to the androgen receptor,androgen receptor,lower affinity
